Read-outs that look alike come from different tables or passages of the source.
Legend:
[1] = test system: Amaranthus rudis (AMATA), tall water hemp; test: Postemergence herbicide evaluation, growth of Amaranthus rudis (AMATA); assay type: in vivo; details: Amaranthus tuberculatus, post-emergence, percent reduction in plant size relative to untreated control, read-out: Ave. AMATA; for pest or weed control at 280 g/ha: 280 g ae/ha; for pest or weed control at 560 g/ha: 560 g ae/ha
[2] = test system: Ambrosia artemisiifolia (AMBEL), common ragweed; test: Postemergence herbicide evaluation, growth of Ambrosia artemisiifolia (AMBEL); assay type: in vivo; details: Ambrosia artemisiifolia, post-emergence, percent reduction in plant size relative to untreated control, read-out: AVE. AMBEL; for pest or weed control at 280 g/ha: 280 g ae/ha; for pest or weed control at 560 g/ha: 560 g ae/ha
[3] = test system: Abutilon theophrasti (ABUTH), velvetleaf; test: Postemergence herbicide evaluation, growth of Abutilon theophrasti (ABUTH); assay type: in vivo; details: Abutilon theophrasti, post-emergence, percent reduction in plant size relative to untreated control, read-out: AVE. ABUTH; for pest or weed control at 280 g/ha: 280 g ae/ha; for pest or weed control at 560 g/ha: 560 g ae/ha
[4] = test system: Chenopodium album (CHEAL), common lambsquarters; test: Postemergence herbicide evaluation, growth of Chenopodium album (CHEAL); assay type: in vivo; details: Chenopodium album, post-emergence, percent reduction in plant size relative to untreated control, read-out: Ave. CHEAL; for pest or weed control at 280 g/ha: 280 g ae/ha; for pest or weed control at 560 g/ha: 560 g ae/ha
[5] = test system: glyphosate resistant Conyza canadensis (L.) (ERICA), horseweed; test: Postemergence herbicide evaluation, growth of Conyza canadensis (ERICA); assay type: in vivo; details: Erigeron canadensis, post-emergence, percent reduction in plant size relative to untreated control, read-out: Ave. ERICA; for pest or weed control at 280 g/ha: 280 g ae/ha; for pest or weed control at 560 g/ha: 560 g ae/ha
[6] = Volatility of compounds measured by thermogravimetric analysis (TGA); assay type: physicochemical
[7] = test system: weeds (ABUTH, AMATA, AMBEL, CHEAL, ERICA); test: Postemergence herbicide evaluation, overall average % weed control across ABUTH, AMATA, AMBEL, CHEAL, ERICA; assay type: in vivo; details: post-emergence, average over the five weeds, read-out: Overall Ave % Weed Control; for pest or weed control at 280 g/ha: 280 g ae/ha; for pest or weed control at 560 g/ha: 560 g ae/ha

SMILES	pest or weed control at 280 g/ha ([1]; 168 h, 7 DAA)	pest or weed control at 560 g/ha ([1]; 168 h, 7 DAA)	pest or weed control at 280 g/ha ([1]; 336 h, 14 DAA)	pest or weed control at 560 g/ha ([1]; 336 h, 14 DAA)	pest or weed control at 280 g/ha ([1]; 504 h, 21 DAA)	pest or weed control at 560 g/ha ([1]; 504 h, 21 DAA)	pest or weed control at 280 g/ha ([2]; 168 h, 7 DAA)	pest or weed control at 560 g/ha ([2]; 168 h, 7 DAA)	pest or weed control at 280 g/ha ([2]; 336 h, 14 DAA)	pest or weed control at 560 g/ha ([2]; 336 h, 14 DAA)	pest or weed control at 280 g/ha ([2]; 504 h, 21 DAA)	pest or weed control at 560 g/ha ([2]; 504 h, 21 DAA)	pest or weed control at 280 g/ha ([3]; 168 h, 7 DAA)	pest or weed control at 560 g/ha ([3]; 168 h, 7 DAA)	pest or weed control at 280 g/ha ([3]; 336 h, 14 DAA)	pest or weed control at 560 g/ha ([3]; 336 h, 14 DAA)	pest or weed control at 280 g/ha ([3]; 504 h, 21 DAA)	pest or weed control at 560 g/ha ([3]; 504 h, 21 DAA)	pest or weed control at 280 g/ha ([4]; 168 h, 7 DAA)	pest or weed control at 560 g/ha ([4]; 168 h, 7 DAA)	also measured
O=C(COc1ccc(Cl)cc1Cl)NOc1ccccc1 [Compound D7]	73%	80%	83%	90%	83%	83%	63%	73%	83%	89%	95%	97%	68%	80%	68%	85%	70%	92%	65%	68%	pest or weed control at 280 g/ha ([4]; 336 h, 14 DAA): 70%; pest or weed control at 560 g/ha ([4]; 336 h, 14 DAA): 75%; pest or weed control at 280 g/ha ([4]; 504 h, 21 DAA): 70%; pest or weed control at 560 g/ha ([4]; 504 h, 21 DAA): 78%; pest or weed control at 280 g/ha ([5]; 168 h, 7 DAA): 63%; pest or weed control at 560 g/ha ([5]; 168 h, 7 DAA): 63%; pest or weed control at 280 g/ha ([5]; 336 h, 14 DAA): 83%; pest or weed control at 560 g/ha ([5]; 336 h, 14 DAA): 85%; pest or weed control at 280 g/ha ([5]; 504 h, 21 DAA): 95%; pest or weed control at 560 g/ha ([5]; 504 h, 21 DAA): 95%; TGA Data (rate of weight loss, volatility) [6]: 0.2 µg/min; pest or weed control at 280 g/ha ([7]; 168 h, 7 DAA): 66%; pest or weed control at 560 g/ha ([7]; 168 h, 7 DAA): 73%; pest or weed control at 280 g/ha ([7]; 336 h, 14 DAA): 77%; pest or weed control at 560 g/ha ([7]; 336 h, 14 DAA): 85%; pest or weed control at 280 g/ha ([7]; 504 h, 21 DAA): 82%; pest or weed control at 560 g/ha ([7]; 504 h, 21 DAA): 89%
CN(OC(=O)COc1ccc(Cl)cc1Cl)C(=O)c1ccccc1 [Compound A16, N-(2-(2,4-Dichlorophenoxy)acetoxy)-N-methylbenzamide]	65%	83%	73%	83%	65%	87%	70%	78%	83%	97%	88%	100%	85%	88%	93%	96%	94%	99%	63%	68%	pest or weed control at 280 g/ha ([4]; 336 h, 14 DAA): 70%; pest or weed control at 560 g/ha ([4]; 336 h, 14 DAA): 80%; pest or weed control at 280 g/ha ([4]; 504 h, 21 DAA): 68%; pest or weed control at 560 g/ha ([4]; 504 h, 21 DAA): 95%; pest or weed control at 280 g/ha ([5]; 168 h, 7 DAA): 68%; pest or weed control at 560 g/ha ([5]; 168 h, 7 DAA): 75%; pest or weed control at 280 g/ha ([5]; 336 h, 14 DAA): 85%; pest or weed control at 560 g/ha ([5]; 336 h, 14 DAA): 92%; pest or weed control at 280 g/ha ([5]; 504 h, 21 DAA): 93%; pest or weed control at 560 g/ha ([5]; 504 h, 21 DAA): 100%; TGA Data (rate of weight loss, volatility) [6]: 4.3 µg/min; pest or weed control at 280 g/ha ([7]; 168 h, 7 DAA): 70%; pest or weed control at 560 g/ha ([7]; 168 h, 7 DAA): 78%; pest or weed control at 280 g/ha ([7]; 336 h, 14 DAA): 81%; pest or weed control at 560 g/ha ([7]; 336 h, 14 DAA): 89%; pest or weed control at 280 g/ha ([7]; 504 h, 21 DAA): 81%; pest or weed control at 560 g/ha ([7]; 504 h, 21 DAA): 96%
O=C(Cc1ccccc1)NOC(=O)COc1ccc(Cl)cc1Cl [Compound A13, N-(2-(2,4-dichlorophenoxy)acetoxy)-2-phenylacetamide]	75%	70%	80%	74%	91%	70%	65%	70%	85%	94%	90%	97%	68%	80%	70%	85%	75%	93%	68%	65%	pest or weed control at 280 g/ha ([4]; 336 h, 14 DAA): 68%; pest or weed control at 560 g/ha ([4]; 336 h, 14 DAA): 78%; pest or weed control at 280 g/ha ([4]; 504 h, 21 DAA): 73%; pest or weed control at 560 g/ha ([4]; 504 h, 21 DAA): 91%; pest or weed control at 280 g/ha ([5]; 168 h, 7 DAA): 60%; pest or weed control at 560 g/ha ([5]; 168 h, 7 DAA): 65%; pest or weed control at 280 g/ha ([5]; 336 h, 14 DAA): 78%; pest or weed control at 560 g/ha ([5]; 336 h, 14 DAA): 97%; pest or weed control at 280 g/ha ([5]; 504 h, 21 DAA): 83%; pest or weed control at 560 g/ha ([5]; 504 h, 21 DAA): 99%; TGA Data (rate of weight loss, volatility) [6]: 1.2 µg/min; pest or weed control at 280 g/ha ([7]; 168 h, 7 DAA): 67%; pest or weed control at 560 g/ha ([7]; 168 h, 7 DAA): 70%; pest or weed control at 280 g/ha ([7]; 336 h, 14 DAA): 76%; pest or weed control at 560 g/ha ([7]; 336 h, 14 DAA): 85%; pest or weed control at 280 g/ha ([7]; 504 h, 21 DAA): 82%; pest or weed control at 560 g/ha ([7]; 504 h, 21 DAA): 90%

— patent publication US20260042731A1, “(2,4-DICHLOROPHENOXY)ACETIC ACID ANALOGS” (CORTEVA AGRISCIENCE LLC, priority 2022, published 2026)
